Source: patent EP0647645A1, “Novel antitumoral and antiviral compound” (PHARMA MAR, S.A., priority 1993, dated 1995)

How the values were obtained:
[1] = tested on: P-388 cells; assay: antitumoral assay, P-388 cell growth inhibition (cell counting); assay type: cell-based, DBA/2 mouse; settings: three days of incubation
Experimental: (§1) Pateamine was diluted in MeOH/CH₂Cl₂ 1:1 at 100 ng/ml and it has been tested at different concentrations. The solvent was added to evaporate before the cells were seeded.
(§2) Four general antitumoral assays, employing the currently accepted screening protocols have been carried out using the following cells: P-388 (lymphoid neoplasm from DBA/2 mouse) A-549 (human lung carcinoma) HT-29 (human colon carcinoma) KB (human oral epidermoid carcinoma)
P-388 cells were seeded into 16 mm wells at 1 x 10⁴ per well in 1 ml aliquots of MEM 10FCS containing the indicated concentration or drug. All determinations were carried out in duplicate. After three days of incubation cells were counted and the IC₅₀ was determined. DATA TABLE-I

[2] = tested on: A-549 cells; assay: antitumoral assay, A-549 cell growth inhibition (cell counting); assay type: cell-based, human; settings: three days of incubation
Experimental: as §1, §2
A-549 cells were seeded into 16 mm wells at 2 x 10⁴ per well. The day after the inoculum was replaced by 1 ml aliquots of MEM 10FCS containing the indicated concentration of drug. All determination were carried out in duplicate. After three days of incubation cells were counted and the IC₅₀ was determined. DATA TABLE-II

[3] = tested on: BHK cells; assay: cytotoxicity assay, MTT method, BHK cells; assay type: cell-based, hamster; settings: three days of incubation
Experimental: (§3) Two types of cytotoxicity assays were conducted, one of them employing conventional screening protocols and the other using the MTT method. In both cases the cells were: CV-1 (monkey kidney fibroblast) BHK (hamster kidney fibroblast)
(§4) CV-1 and BHK cells were seeded into 9 mm wells at 1 x 10⁴ cells per well (logarithmic phase) and at 2 x 10⁵ cells per well (stationary phase). The day after the inoculum was replaced by […] aliquots of MEM 10FCS containing different concentrations of drug. All determinations were carried out in duplicate. After three days of incubation, 50 µl of medium containing 100 µg of MTT were added. Plates were incubated for two hours, medium was removed and 100 µl of isopropanol were added. The absorbencies were determined with a microtiter reader. DATA TABLE-VII

[4] = tested on: CV-1 cells; assay: cytotoxicity in antiviral assay, inhibition zone on the CV-1 cell sheet; settings: CV-1/HSV-1
[5] = tested on: CV-1 cells; assay: cytotoxicity assay, MTT method, CV-1 cells; assay type: cell-based, monkey; settings: three days of incubation
Experimental: as §3, §4

[6] = tested on: KB cells; assay: antitumoral assay, KB cell growth inhibition (cell counting); assay type: cell-based, human; settings: four days of incubation
Experimental: as §1, §2
KB cells were seeded into 16 mm wells at 2 X 10⁴ cells per well. The day after the inoculum was replaced by 1 ml aliquots of MEM 10FCS containing the indicated concentration of drug. All determinations were carried out in duplicate. After four days of incubation cells were counted and the IC₅₀ was determined. DATA TABLE-IV

[7] = tested on: VSV (vesicular stomatitis virus); assay type: cell-based
[8] = tested on: CV-1 cells; assay: cytotoxicity assay, CV-1 cell growth inhibition (cell counting); assay type: cell-based, monkey; settings: four days of incubation
Experimental: as §1, §3
CV-1 cells were seeded into 16 mm wells at 2 x 10⁴ per well. The day after the inoculum was replaced by 1 ml aliquots of MEM 10FCS containing the indicated concentration of drug. All determinations were carried out in duplicate. After four days of incubation cells were counted and the IC₅₀ was determined. DATA TABLE-V

[9] = tested on: P388 cell line; assay: P388 assay of fractions during isolation; assay type: cell-based; settings: isolation fractions and free base form
Experimental: The sponge N.sp2 was extracted with methanol and a 3:1 mixture of methanol dichloromethane. An aqueous suspension of the entire 1 Kg extract of Mycale was extracted with three equivalent volumes of chloroform which was in turn back-extracted with distilled water. The organic extract (7.5 g) was loaded onto a C₁₈ flash column (200 g freshly prepared). Elution was started with 50% water/methanol, the methanol content was increased in steps to 100%, and then dichloromethane was added in gradual increments to 50%. Sixteen fractions were collected, weighed and assayed. Good total recovery of mass and activity was obtained with most of the activity confined to one fraction. […] A gradient solvent system was used (CH₂Cl₂, EtOAc, MeOH) and the fractions were monitored by TLC. Much of the fatty acids and pigments were eluted with the mixtures of CH₂Cl₂ and EtOAc, while a yellow charring (H₂SO₄ on silica) material came off in 5 - 20% MeOH in EtOAc. The fractions containing the yellow char were combined to yield a mass of 240 mg. […] This fraction was further purified using amino cartridges (500 mg). The activity was eluted with MeOH to yield 45 mg of material (IC₅₀ 0.5 ng/ml P388). Final purifications was obtained on a LH20 column using the eluting solvent system 9:1 MeOH/CH₂Cl₂ with 2% concentrated aqueous ammonia. This was selected to keep the active component in a free base form. […]

[10] = tested on: BHK cells; assay: cytotoxicity assay, BHK cell growth inhibition (cell counting); assay type: cell-based, hamster; settings: three days of incubation
Experimental: as §1, §3
BHK cells were seeded into 16 mm wells at 2 X 10⁴ per well. The day after the inoculum was replaced by 1 ml aliquots of MEM 10FCS containing the indicated concentration of drug. All determinations were carried out in duplicate. After three days of incubation cells were counted and the IC₅₀ was determined. DATA TABLE-VI

[11] = tested on: HSV-1 (herpes simplex virus, type 1); assay: antiviral assay, plaque reduction, HSV-1 in CV-1 cells; assay type: cell-based
[12] = tested on: HT-29 cells; assay: antitumoral assay, HT-29 cell growth inhibition (cell counting); assay type: cell-based, human; settings: four days of incubation
Experimental: as §1, §2
HT-29 cells were seeded into 16 mm wells at 4 x 10⁴ per well. The day after the inoculum was replaced by 1 ml aliquots of MEM 10FCS containing the indicated concentration of drug. All determinations were carried out in duplicate. After four days of incubation cells were counted and the IC₅₀ was determined. DATA TABLE-III

[13] = tested on: Balb/c lymphocytes; assay type: cell-based, mice

pateamine was tested, and the “% Inhibition P-388 cell growth” value ([1]; 0.1ng) was 11%, the “% Inhibition P-388 cell growth” value ([1]; 0.5ng) was 0% and the “% Inhibition P-388 cell growth” value ([1]; 1ng) was 100%. For the same substance, the “% Inhibition P-388 cell growth” value ([1]; 5ng) was 100%, the “% Inhibition P-388 cell growth” value ([1]; 10ng) was 100% and the IC₅₀ ng/ml approx. ([1]; P-388 cell growth) was about 0.3 ng/mL. The “% Inhibition A-549 cell growth” value ([2]; 0.1ng) was 0%, the “% Inhibition A-549 cell growth” value ([2]; 0.5ng) was 0% and the “% Inhibition A-549 cell growth” value ([2]; 1ng) was 71%. For the same substance, the “% Inhibition A-549 cell growth” value ([2]; 5ng) was 100%, the “% Inhibition A-549 cell growth” value ([2]; 10ng) was 100% and the IC₅₀ ng/ml approx. ([2]; A-549 cell growth) was about 0.7 ng/mL. The IC₅₀ ([3]; log. phase) was 3.7 ng/mL, the IC₅₀ ([3]; stat. phase) was over 100 ng/mL and the “cytotoxicity for the cells, inhibition zone on the cell sheet” value ([4]; 10ng) was 6. For the same substance, the “cytotoxicity for the cells, inhibition zone on the cell sheet” value ([4]; 20ng) was 10, the “cytotoxicity for the cells, inhibition zone on the cell sheet” value ([4]; 40ng) was 12 and the “cytotoxicity for the cells, inhibition zone on the cell sheet” value ([4]; 100ng) was 14. For the same substance, the “cytotoxicity for the cells, inhibition zone on the cell sheet” value ([4]; 200ng) was 16, the “cytotoxicity for the cells, inhibition zone on the cell sheet” value ([4]; 400ng) was 16 and the IC₅₀ ([5]; log. phase) was 2.4 ng/mL. For the same substance, the IC₅₀ ([5]; stat. phase) was over 100 ng/mL, the “% Inhibition KB cell growth” value ([6]; 0.1ng) was 70% and the “% Inhibition KB cell growth” value ([6]; 0.5ng) was 67%. The “% Inhibition KB cell growth” value ([6]; 1ng) was 96%, the “% Inhibition KB cell growth” value ([6]; 5ng) was 100% and the “% Inhibition KB cell growth” value ([6]; 10ng) was 100%. For the same substance, the IC₅₀ ng/ml approx. ([6]; KB cell growth) was under 0.05 ng/mL, the IC₅₀ ng/disk [7] was over 20 ng/disk and the “% Inhibition CV-1 cell growth” value ([8]; 0.1ng) was 0%. For the same substance, the “% Inhibition CV-1 cell growth” value ([8]; 0.5ng) was 0%, the “% Inhibition CV-1 cell growth” value ([8]; 1ng) was 31% and the “% Inhibition CV-1 cell growth” value ([8]; 5ng) was 84%. The “% Inhibition CV-1 cell growth” value ([8]; 10ng) was 100%, the IC₅₀ ng/ml approx. ([8]; CV-1 cell growth) was about 2.4 ng/mL and the IC₅₀ [9] was 0.15 ng/mL. For the same substance, the “% Inhibition BHK cell growth” value ([10]; 0.1ng) was 0%, the “% Inhibition BHK cell growth” value ([10]; 0.5ng) was 0% and the “% Inhibition BHK cell growth” value ([10]; 1ng) was 0%. For the same substance, the “% Inhibition BHK cell growth” value ([10]; 5ng) was 98%, the “% Inhibition BHK cell growth” value ([10]; 10ng) was 100% and the IC₅₀ ng/ml approx. ([10]; BHK cell growth) was about 3 ng/mL. For the same substance, the “% Inhibition CV-1/HSV-1 (plaque reduction sign)” value ([11]; 20ng) was “+ (The sign (+), indicates that plaques are reduced by approx. 50-60%.)”, the “% Inhibition CV-1/HSV-1 (plaque reduction sign)” value ([11]; 40ng) was “++ (The sign (+ +), indicates that plaques are reduced by approx. 70-90%.)” and the “% Inhibition CV-1/HSV-1 (plaque reduction sign)” value ([11]; 100ng) was “+++ (The sign (+ + +), indicates that plaques are reduced 100%.)”. The “% Inhibition CV-1/HSV-1 (plaque reduction sign)” value ([11]; 200ng) was “+++ (The sign (+ + +), indicates that plaques are reduced 100%.)”, the “% Inhibition CV-1/HSV-1 (plaque reduction sign)” value ([11]; 400ng) was “+++ (The sign (+ + +), indicates that plaques are reduced 100%.)” and the IC₅₀ ng/disk ([11]; CV-1/HSV-1, ( + ) is the approximately IC₅₀) was 20 ng/disk. For the same substance, the “% Inhibition HT-29 cell growth” value ([12]; 0.1ng) was 0%, the “% Inhibition HT-29 cell growth” value ([12]; 0.5ng) was 0% and the “% Inhibition HT-29 cell growth” value ([12]; 1ng) was 35%. For the same substance, the “% Inhibition HT-29 cell growth” value ([12]; 5ng) was 85%, the “% Inhibition HT-29 cell growth” value ([12]; 10ng) was 91% and the IC₅₀ ng/ml approx. ([12]; HT-29 cell growth) was about 2 ng/mL. The “IC₅₀ for the LcV” value [13] was 4.1 µg/mL.
